Reference: ChEMBL document CHEMBL1133169, “A light-inactivated antibiotic” (2000)

Columns and labels:
[1] = biological target: Beta-lactamase TEM (Escherichia coli) (UniProt P62593); test: The turnover kinetic parameter (kcat) evaluated for Class A TEM-1 beta-lactamase
[2] = biological target: Beta-lactamase TEM (Escherichia coli) (UniProt P62593); test: The turnover kinetic parameter (kcat/Km) evaluated for class A TEM-1 Beta-latctamase
[3] = The turnover kinetic parameter (kcat) evaluated for class C Q908R Beta-latctamase
[4] = The turnover kinetic parameter (kcat/Km) evaluated for class C Q908R Beta-latctamase
[5] = The turnover kinetic parameter (Km) evaluated for Class C Q908R Beta-lactamase

Chain of Beta-lactamase TEM (Escherichia coli) (P62593 whole entry): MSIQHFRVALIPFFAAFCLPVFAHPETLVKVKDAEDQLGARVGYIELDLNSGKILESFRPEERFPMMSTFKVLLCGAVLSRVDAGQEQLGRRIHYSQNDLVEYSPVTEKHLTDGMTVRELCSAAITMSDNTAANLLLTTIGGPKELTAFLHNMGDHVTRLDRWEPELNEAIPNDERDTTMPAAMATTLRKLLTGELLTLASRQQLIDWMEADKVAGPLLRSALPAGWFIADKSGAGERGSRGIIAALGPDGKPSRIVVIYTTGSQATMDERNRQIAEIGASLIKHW

`CC(=O)OCC1=C(C(=O)O)N2C(=O)[C@@H](NC(=O)[C@@H](Cc3ccccc3)NNC(=O)OCc3ccccc3[N+](=O)[O-])C2SC1` (stereo not given in full) gave a k cat [1] of 7.4 s⁻¹, a k cat/Km [2] of 93000 M⁻¹ s⁻¹ and a k cat [3] of 1770 s⁻¹. For the same compound, the k cat/Km [4] was 2.8e+07 M⁻¹ s⁻¹ and the Km [5] was 62 µM.
